# Measurements: patent US20220088002A1, “METHOD AGAINST CORONAVIRUS INFECTION WITH QUINOLINE COMPOUND” (CHANG GUNG UNIVERSITY, priority 2020, published 2022)
# Legend:
# SARS-CoV-2 [1] = format: cell-based; conditions: Vero E6 cells pretreated at 0.3125 μM, 1.25 μM, and 5 μM, m.o.i. 0.01; normalized against GAPDH; versus pathological control group
# SARS-CoV-2 [2] = assay: Viral plaque reduction assay; format: cell-based; conditions: SARS-CoV-2-infected Vero E6 cells (m.o.i. 0.01), 1 μM and 10 μM, 72 hours; versus pathological control group
# HcoV-229E = assay: Effect against HCoV-229E in Vero E6 cells (MTT cell viability); format: cell-based, human coronavirus 229E
# Experimental: Vero E6 cells were divided into 6 groups, including one normal control group, one pathological control group, and four experimental groups (i.e., experimental groups 1 to 4). Each group of the Vero E6 cells was incubated in a respective well of a 96-well culture plate containing 100 μL of E2 medium at 2×10^4 cells/well, followed by cultivation in an incubator (37° C., 5% CO2) for 24 hours. Afterwards, the culture medium in each well was removed, and the cells of the experimental groups 1 to 4 were pretreated with 6-bromo-2-[1-(2,5-dimethylphenyl)-5-methyl-1H-pyrazol-4-yl]-quinoline-4-carboxylic acid (i.e., HP520-3) (Cat. No. Molport-020-176-277, Molport Inc.) respectively at concentrations of 39 nM, 78 nM, 156 nM, and 312 nM, followed by adding 150 μL of the HcoV-229E solution prepared in section 2 of General Experimental Materials. […]
# Each group was cultivated in an incubator (37° C., 5% CO2) for 96 hours. […] After cultivation in an incubator (37° C., 5% CO2) for 2 hours, the respective resultant cell culture was added with 150 μL of dimethyl sulfoxide (DMSO), followed by subjecting the mixture thus obtained to determination of absorbance at a wavelength of 590 nm (OD590) by an ELISA reader.
# The cell viability rate (%) was calculated using the following Equation (I): […]
smiles,measurement,setting,value
"Cc1ccc(C)c(-n2ncc(-c3cc(C(=O)O)c4cc(Br)ccc4n3)c2C)c1 [HP520-3, 6-bromo-2-[1-(2,5-dimethylphenyl)-5-methyl-1H-pyrazol-4-yl]-quinoline-4-carboxylic acid]",relative RNA expression level of E gene of SARS-CoV-2,SARS-CoV-2 [1],significantly lower than that of the pathological control group
same,number of viral plaques,SARS-CoV-2 [2],lower than that determined in the pathological control group
same,cell viability rate,"HcoV-229E; HcoV-229E-infected Vero E6 cells pretreated at 39 nM, 78 nM, 156 nM, and 312 nM, versus pathological control group",significantly higher than that determined in the pathological control group
same,EC50,"HcoV-229E; Human coronavirus 229E, Vero C1008, HcoV-229E-infected Vero E6 cells, 96 hours, MTT, n=3, mean±SD",141 ± 15.4 nM
